Test results: publication PMC8157031, “Identification of Binding Regions of Bilirubin in the Ligand-Binding Pocket of the Peroxisome Proliferator-Activated Receptor-A (PPARalpha)” (Molecules, 2021)
Numbering of substitutions follows the chain as printed.

Experiments:
PPARα [1] = biological target: T1, PPARα (Mus musculus, UniProt P23204, A333G); test: bilirubin autofluorescence with purified mutant; binding reduced by […]
T1 construct: gene Ppara; full-length histidine-tagged mouse PPARα
T1 sequence (P23204 1-468 A333G): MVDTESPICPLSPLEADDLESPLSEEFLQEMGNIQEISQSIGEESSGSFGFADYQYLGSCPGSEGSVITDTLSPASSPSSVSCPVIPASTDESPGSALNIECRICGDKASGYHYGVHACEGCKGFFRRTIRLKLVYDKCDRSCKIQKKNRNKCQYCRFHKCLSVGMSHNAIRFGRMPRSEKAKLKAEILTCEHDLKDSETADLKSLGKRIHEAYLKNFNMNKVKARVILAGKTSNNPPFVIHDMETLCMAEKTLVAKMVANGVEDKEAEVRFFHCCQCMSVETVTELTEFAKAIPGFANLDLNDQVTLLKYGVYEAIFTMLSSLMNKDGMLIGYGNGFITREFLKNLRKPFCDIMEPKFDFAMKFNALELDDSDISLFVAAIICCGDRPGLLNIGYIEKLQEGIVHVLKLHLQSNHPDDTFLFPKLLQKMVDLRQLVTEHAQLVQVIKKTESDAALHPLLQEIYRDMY

PPARα [2] = biological target: T2, PPARα (Mus musculus, UniProt P23204); test: bilirubin autofluorescence titration with purified His-PPARα; assay type: binding
T2 construct: gene Ppara; full-length histidine-tagged mouse PPARα
T2 sequence (P23204 1-468): T1 sequence (P23204 1-468 A333G) with G333A

[3] = biological target: T3, bovine serum albumin (BSA) (Bos taurus, UniProt P02769); test: bilirubin autofluorescence titration (excitation […] nm); assay type: binding
T3 construct: gene ALB

PPARα [4] = biological target: T4, PPARα (Mus musculus, UniProt P23204, T283G); test: bilirubin autofluorescence with purified mutant; binding reduced by […]
T4 construct: gene Ppara; full-length histidine-tagged mouse PPARα
T4 sequence (P23204 1-468 T283G): T1 sequence (P23204 1-468 A333G) with T283G, G333A

[5] = biological target: T3, bovine serum albumin (BSA); test: biliverdin autofluorescence dose-response (excitation […] nm); assay type: binding

T3 sequence (P02769 25-607): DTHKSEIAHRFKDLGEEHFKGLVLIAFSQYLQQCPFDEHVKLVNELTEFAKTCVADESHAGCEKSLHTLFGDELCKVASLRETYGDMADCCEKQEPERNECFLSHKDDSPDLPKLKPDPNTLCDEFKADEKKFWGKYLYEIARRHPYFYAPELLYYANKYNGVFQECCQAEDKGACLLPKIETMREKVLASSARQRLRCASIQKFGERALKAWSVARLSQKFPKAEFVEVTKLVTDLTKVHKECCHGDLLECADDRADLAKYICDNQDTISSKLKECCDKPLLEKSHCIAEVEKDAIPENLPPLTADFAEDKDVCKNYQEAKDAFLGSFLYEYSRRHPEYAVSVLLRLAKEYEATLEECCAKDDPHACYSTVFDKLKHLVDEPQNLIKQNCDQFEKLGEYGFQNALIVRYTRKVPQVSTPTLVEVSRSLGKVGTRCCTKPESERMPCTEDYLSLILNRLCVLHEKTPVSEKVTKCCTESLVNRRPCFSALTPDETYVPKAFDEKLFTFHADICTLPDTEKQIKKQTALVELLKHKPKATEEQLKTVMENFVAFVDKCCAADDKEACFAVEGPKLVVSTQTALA

SMILES: C=CC1=C(C)/C(=C/c2[nH]c(Cc3[nH]c(/C=C4\NC(=O)C(C)=C4C=C)c(C)c3CCC(=O)O)c(CCC(=O)O)c2C)NC1=O [BR, bilirubin]
- % reduction of binding (PPARα [1]): 17.0 % reduction of binding
- Kd (PPARα [2]): 5.13 µM
- Kd [3]: 11.1 µM
- % reduction of binding (PPARα [4]): 11.4 % reduction of binding

SMILES: C=CC1=C(C)/C(=C/C2=NC(=C\c3[nH]c(/C=C4\NC(=O)C(C)=C4C=C)c(C)c3CCC(=O)O)/C(CCC(=O)O)=C2C)NC1=O [BV, biliverdin]
- biliverdin autofluorescence dose-response (excitation 440 nm) [5]: The results in Figure 1C show a dose-dependent increase in fluorescence for biliverdin bound to albumin
